For 15 compounds, IC50 and Ratio IC50 results are on record in ChEMBL document CHEMBL2424537, “Design, synthesis, biological evaluation and docking study of 5-oxo-4,5-dihydropyrano[3,2-c]chromene derivatives as acetylcholinesterase and butyrylcholinesterase inhibitors” (Eur J Med Chem, 2013).

One experiment has as its target Acetylcholinesterase (Electrophorus electricus, UniProt O42275).
Experiment [1] is described as follows: Selectivity ratio of IC50 for equine serum BChE to IC50 for electric eel AChE.
The next experiment deals with Cholinesterase (Equus caballus, UniProt P81908). The experiment can be described thus: Inhibition of equine serum BChE using butyrylthiocholine iodide as substrate after 2 mins by Ellman's method. In general terms: In Ellman's method for cholinesterases, released thiocholine reacts with DTNB.
Cholinesterase, sequence (P81908 whole entry): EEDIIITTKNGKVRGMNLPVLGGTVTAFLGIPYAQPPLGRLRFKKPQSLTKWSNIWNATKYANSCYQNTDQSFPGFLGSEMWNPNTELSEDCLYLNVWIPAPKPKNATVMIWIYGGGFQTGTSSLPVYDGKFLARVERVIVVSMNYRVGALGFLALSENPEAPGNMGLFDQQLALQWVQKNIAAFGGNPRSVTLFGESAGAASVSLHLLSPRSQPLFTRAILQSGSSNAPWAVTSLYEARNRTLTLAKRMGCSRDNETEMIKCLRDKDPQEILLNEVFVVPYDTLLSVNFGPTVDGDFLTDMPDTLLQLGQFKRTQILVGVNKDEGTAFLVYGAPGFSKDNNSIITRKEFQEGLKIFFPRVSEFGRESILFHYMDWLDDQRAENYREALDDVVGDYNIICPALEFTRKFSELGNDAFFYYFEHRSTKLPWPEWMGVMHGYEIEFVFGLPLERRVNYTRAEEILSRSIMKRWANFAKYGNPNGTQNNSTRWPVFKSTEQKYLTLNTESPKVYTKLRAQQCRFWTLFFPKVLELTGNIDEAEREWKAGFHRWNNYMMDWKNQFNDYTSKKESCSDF

Acetylcholinesterase, sequence (O42275 whole entry): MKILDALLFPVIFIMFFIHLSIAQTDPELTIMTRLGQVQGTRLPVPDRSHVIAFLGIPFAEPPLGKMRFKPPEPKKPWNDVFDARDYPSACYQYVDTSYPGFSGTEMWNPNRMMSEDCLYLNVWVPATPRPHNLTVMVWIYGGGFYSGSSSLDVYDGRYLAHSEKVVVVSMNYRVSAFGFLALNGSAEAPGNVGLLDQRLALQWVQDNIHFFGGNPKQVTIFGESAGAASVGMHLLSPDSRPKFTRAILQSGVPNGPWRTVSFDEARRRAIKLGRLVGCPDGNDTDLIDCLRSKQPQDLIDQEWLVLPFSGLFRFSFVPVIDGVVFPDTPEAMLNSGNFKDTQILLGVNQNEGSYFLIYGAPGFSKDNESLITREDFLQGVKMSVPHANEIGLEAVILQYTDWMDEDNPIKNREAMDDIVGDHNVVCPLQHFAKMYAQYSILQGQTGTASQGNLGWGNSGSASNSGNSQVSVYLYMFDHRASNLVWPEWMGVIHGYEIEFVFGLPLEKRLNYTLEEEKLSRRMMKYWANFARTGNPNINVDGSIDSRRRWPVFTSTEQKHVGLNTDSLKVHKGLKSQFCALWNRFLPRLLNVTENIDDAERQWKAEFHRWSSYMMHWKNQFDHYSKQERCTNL
Description for Acetylcholinesterase: Inhibition of electric eel AChE using acetylthiocholine iodide as substrate after 2 mins by Ellman's method

The IC50 is the concentration that inhibits the measured activity by half. Regarding `N#CC1=C(N)Oc2c(c(=O)oc3ccccc23)C1c1cc[n+](Cc2ccc(Cl)c(Cl)c2)cc1` (stereo not given), the IC50 on Acetylcholinesterase was found to be 44 nM; against Cholinesterase it was 1270 nM. In experiment [1], the Ratio IC50 turned out to be 28.9.

As to `N#CC1=C(N)Oc2c(c(=O)oc3ccccc23)C1c1cc[n+](Cc2ccc(F)cc2)cc1` (stereo not given), the 50% inhibitory concentration (IC50) was 38 nM against Acetylcholinesterase and 1840 nM at Cholinesterase. The Ratio IC50 in experiment [1] came to 48.4.

On to `N#CC1=C(N)Oc2c(c(=O)oc3ccccc23)C1c1ccc[n+](Cc2cccc(Cl)c2)c1` (stereo not given), for which the values for the IC50 on Acetylcholinesterase and on Cholinesterase were 7400 nM and 38400 nM, respectively. In addition, the Ratio IC50 in experiment [1] is 5.2.

In the case of `N#CC1=C(N)Oc2c(c(=O)oc3ccccc23)C1c1cc[n+](Cc2ccccc2Cl)cc1` (stereo not given), the IC50 at Acetylcholinesterase came to 1500 nM; at Cholinesterase it was 4800 nM. Further, the Ratio IC50 in experiment [1] was determined as 3.2.

`Cc1ccccc1C[n+]1ccc(C2C(C#N)=C(N)Oc3c2c(=O)oc2ccccc32)cc1` (stereo not given): the values for the IC50 against Acetylcholinesterase and at Cholinesterase were 3700 nM and 17800 nM, respectively. Besides, in experiment [1], the Ratio IC50 was 4.8.

For `N#CC1=C(N)Oc2c(c(=O)oc3ccccc23)C1c1cc[n+](Cc2ccc(Cl)cc2Cl)cc1` (stereo not given), the values for the 50% inhibitory concentration (IC50) against Acetylcholinesterase and on Cholinesterase were 831 nM and 566 nM, respectively. Moreover, the Ratio IC50 in experiment [1] is 0.68.

Regarding `N#CC1=C(N)Oc2c(c(=O)oc3ccccc23)C1c1cc[n+](Cc2cccc(F)c2)cc1` (stereo not given), the IC50 at Acetylcholinesterase is 2800 nM; against Cholinesterase, greater than 50000 nM. The Ratio IC50 in experiment [1] was greater than 17.8.

In the case of `N#CC1=C(N)Oc2c(c(=O)oc3ccccc23)C1c1cc[n+](Cc2ccccc2F)cc1` (stereo not given), the results for the IC50 on Acetylcholinesterase and against Cholinesterase were 2900 nM and 36000 nM, respectively. Further, the Ratio IC50 in experiment [1] is 12.4.

Turning to `N#CC1=C(N)Oc2c(c(=O)oc3ccccc23)C1c1cc[n+](Cc2cccc(Cl)c2)cc1` (stereo not given), the IC50 at Acetylcholinesterase is 480 nM; on Cholinesterase it was 21800 nM. In addition, the Ratio IC50 in experiment [1] came out at 45.4.

With `N#CC1=C(N)Oc2c(c(=O)oc3ccccc23)C1c1ccc[n+](Cc2cccc(F)c2)c1` (stereo not given), the half-inhibitory concentration (IC50) on Acetylcholinesterase was 2000 nM; on Cholinesterase, greater than 50000 nM. Further, the Ratio IC50 in experiment [1] was greater than 25.

Regarding `Cc1cccc(C[n+]2cccc(C3C(C#N)=C(N)Oc4c3c(=O)oc3ccccc43)c2)c1` (stereo not given), the IC50 is 790 nM at Acetylcholinesterase and 14300 nM on Cholinesterase. The Ratio IC50 in experiment [1] was 18.1.

On to `N#CC1=C(N)Oc2c(c(=O)oc3ccccc23)C1c1ccc[n+](Cc2ccccc2Cl)c1` (stereo not given), for which the IC50 against Acetylcholinesterase came out at 1000 nM; against Cholinesterase, 11200 nM. In experiment [1], the Ratio IC50 was 11.2.

As for `Cc1cccc(C[n+]2ccc(C3C(C#N)=C(N)Oc4c3c(=O)oc3ccccc43)cc2)c1` (stereo not given), the IC50 on Acetylcholinesterase worked out at 1900 nM; at Cholinesterase, 5500 nM. Further, the Ratio IC50 in experiment [1] stood at 2.6.

For `N#CC1=C(N)Oc2c(c(=O)oc3ccccc23)C1c1ccc[n+](Cc2ccc(F)cc2)c1` (stereo not given), the IC50 on Acetylcholinesterase and on Cholinesterase was 2170 nM each time. Further, the Ratio IC50 in experiment [1] came to 1.

Regarding `N#CC1=C(N)Oc2c(c(=O)oc3ccccc23)C1c1ccc[n+](Cc2ccccc2F)c1` (stereo not given), the half-maximal inhibitory concentration (IC50) against Acetylcholinesterase worked out at 1800 nM; against Cholinesterase it was 41000 nM. Besides, the Ratio IC50 in experiment [1] was found to be 22.8.
